In patent publication US8791163B2 (McGill University, priority 2006, dated 2014):
Several values for one entry are separate records, joined by “and”; a condition that tells them apart may be missing. Equal entries are not always repeated. Entries after “also recorded” stand apart in the source; their conditions may differ. Where two headings read alike, the source gives them in different places.

Legend:
[1] = biological target: T1, cloned human MT2 receptors (Homo sapiens, UniProt P49286); test: 2-[125I]iodomelatonin competition binding, human MT2 in NIH3T3 cells; conditions: human MT2 in NIH3T3 cells; calculated from IC50 by Cheng-Prusoff; mean of at least three determinations
T1 construct: expressed in transfected cells
T1 sequence (P49286 1-362): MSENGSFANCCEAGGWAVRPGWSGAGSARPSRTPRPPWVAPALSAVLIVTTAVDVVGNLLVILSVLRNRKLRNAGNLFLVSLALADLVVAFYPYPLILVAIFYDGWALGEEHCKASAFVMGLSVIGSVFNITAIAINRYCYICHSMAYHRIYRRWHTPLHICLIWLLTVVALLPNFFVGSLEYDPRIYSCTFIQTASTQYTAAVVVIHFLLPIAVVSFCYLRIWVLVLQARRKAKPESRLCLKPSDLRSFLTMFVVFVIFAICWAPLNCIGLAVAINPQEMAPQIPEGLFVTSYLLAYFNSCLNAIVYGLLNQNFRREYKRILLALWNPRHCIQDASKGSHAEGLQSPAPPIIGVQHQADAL
Procedure: (§1) Membranes were incubated for 90 min at 37° C. in binding buffer (Tris/HCl 50 mM, pH 7.4). The final membrane concentration was 5-10 μg of protein per tube. […] The pKi values are the mean of at least three independent determinations performed in duplicate. To define the functional activity of the compounds of Formula (I) at the MT1 and MT2 receptor subtypes, [^35S]GTPγS binding assays in NIH3T3 cells expressing human-cloned MT1 or MT2 receptors were performed. The amount of bound [^35S]GTPγS is proportional to the level of analogue-induced G-protein activation and is related to the intrinsic activity of the compound (i.e. a compound of Formula (I)) under study. […] Nonspecific binding was assessed using non-radiolabeled GTPγS (10 μM). […] Basal stimulation is the amount of [^35S]GTPγS specifically bound in the absence of the compounds of Formula (I) and was taken as 100%. […] All of the measurements were performed in triplicate.

[2] = biological target: T1, cloned human MT2 receptors; test: [35S]GTPγS binding assay, NIH3T3 cells expressing human MT2; format: biochemical; conditions: maximal net effect relative to MLT
Procedure: as §1

[3] = biological target: T2, cloned human MT1 receptors (Homo sapiens, UniProt P48039); test: [35S]GTPγS binding assay, NIH3T3 cells expressing human MT1; format: biochemical; conditions: for MT1 IAr ± SEM (relative intrinsic activity): maximal net effect relative to MLT; on MT1 Activity: key: A = agonist; PA = partial agonist; ANT = antagonist; IA = Inverse agonist
T2 construct: expressed in transfected cells
Procedure: as §1

[4] = biological target: T2, cloned human MT1 receptors; test: 2-[125I]iodomelatonin competition binding, human MT1 in NIH3T3 cells; conditions: calculated from IC50 by Cheng-Prusoff, mean of at least three determinations
Procedure: as §1

[5] = test system: Adult Sprague Dawley rats; test: Elevated plus maze (EPM); format: in vivo, rat; conditions: diazepam 2 mg/kg, injected 45 min before test
Procedure: The maze is comprised of two open arms (50×10 cm) and two closed arms (50×10×40 cm) that extend from a common central platform (10×10 cm). The apparatus, made of wood (painted black) was elevated to a height of 80 cm above floor level. The closed arms are located opposite one another. Behavior is recorded over a period of 5 min using a video camera positioned directly above the maze and rated by an observer blind to drug conditions. The major measure of interest is the amount of time spent in the open arms. As an index of general activity and distribution, the total number of entries into both open and closed arms was also recorded. […] In order to increase the sensitivity of this test to anxiolytic activity, tests are carried out under normal room illumination (25 W bulb).

Sprague Dawley rats = test: Novelty-Induced Suppressed Feeding (NSF) Test; format: in vivo, rat; conditions: diazepam 2 mg/kg s.c., 45 min before the test
Procedure: The NSF test is used to assess the anti-anxiety effect of a drug [Bodnoff et al. Psychopharmacology 1988, 95(3), 298-307]. Sprague Dawley rats were used in the NSF test. The testing apparatus comprises a brightly lit open area covered with lab chow pellets. Forty-eight hours prior to behavioral testing, all food was removed from the apparatus. Animals treated with compound 5b (40 or 80 mg/kg) were injected 60 min before the test, whereas animals treated with vehicle (DMSO/saline 7:3) or diazepam were injected 45 min before the test. The drugs were administered subcutaneously and the experiments were conducted after 5:30 PM. The latency to feed, defined as chewing the food as opposed to merely sniffing or playing with a pellet, was then recorded (Table 6). The experiment was terminated for those animals that had not begun eating within a period of 360 seconds, which animals were assigned a latency score of 360 seconds. All analyses were conducted using Sigma Stats and SPSS software. The results are expressed as the mean±SEM per n (number) animals tested (*, p<0.01, ANOVA or t test).

[6] = test system: Male rats (Sprague-Dawley); test: EEG and EMG sleep recordings (slow wave sleep, REM sleep, wakefulness); format: in vivo, rat
Procedure: Male rats (Sprague-Dawley) weighing approximately 300-340 g were used for surgical implantation of electroencephalogram (EEG) and electromyogram (EMG) electrodes. Following the recovery from surgery, the animals were housed separately in cages and kept on a 12-hour light/dark cycle (12 h light-12 h dark, 7:30 AM lights on) at a controlled temperature (21° C.). The rats had free access to food and water ad libitum.
Rats were anaesthetized using equithesin (425 mg chloral hydrate, 1 ml 100% ethanol, 98 mg pentobarbitone, 213 mg magnesium sulphate and 3 ml propylene glycol, sterile water per 10 ml of solution; 1 ml per 300 g body weight i.p.) and placed in a stereotactic frame. The skull was exposed and carefully cleaned. Two stainless-steel epidural electrodes were implanted for the registration of the EEG under stereotactic control, through 1.5 mm burr holes at the coordinates corresponding to the right parietal-occipital cortex (AP=−2 mm L=3 mm; AP=−7 mm L=3 mm) and the left parietal-occipital cortex (AP=−4.5 mm L=3 mm) according to the atlas by Paxinos (The Rat Brain in Stereotaxic Coordinates, Academic Press, 1995). Three stainless steel wire electrodes, isolated except for the last few millimeters, were implanted into the neck muscles (two bilaterally and one in the middle) for the monitoring of the EMG. The EEG epidural electrodes and the EMG wires were fitted to a six-pin female connector. For fixation to the skull, the wires and connector were covered with dental acrylic (Coltene/Whaledent Inc. USA). The animals were allowed to recover from the surgery for at least 3-4 days.
Twenty-four hours (24 h) following the surgery, the rats were placed in the recording room from noon to 9:00 PM, for 3-4 days. The rats were connected to the 6-flat cable (3M), in a freely-moving manner, from 6:00 PM to 9:00 PM for habituation. No recordings were performed at this time, however, the tolerance to the cable and the sleep behavior were observed.
Following 3-4 days of habituation, the rats received the injection of a vehicle (DMSO/saline 7:3, 0.2 ml s.c.) at 6:00 PM and the recording was carried out until 9:00 PM. On the following day the rats received diazepam (2 mg/kg, s.c.) at 6:00 PM and the recording was performed until 9:00 PM. Four days following the injection of diazepam, the rat received 5b (40 mg/kg s.c.) and the recording also performed from 6 to 9 PM.
For each experiment, a rat was placed individually in the cage and monitoring of the signal was carried out via the attachment of a non-restraining 6-wire flat cable and a female connector, which was connected to an impedance transformer with a gain of 10, located above the cage. The EEG signal was amplified (resulting in a total gain of 10,000) and locally filtered. The EMG signal was amplified as the EEG, (EEG: low filter 1.0 Hz; high 1 KHz, EMG: low filter 30.0 Hz; high 3 KHz). The power spectra analysis was performed for identification of the sleep stages. The behavior of the animals was observed during the experiment (eye movements, ambulation, rearing etc.).
The three classical vigilance-sleep states described in the rat were discriminated on the basis of the cortical EEG and neck EMG, following the classification by Ruigt et al. (Electroencephalography and clinical Neurophysiology, 1989, 73: 52-63). Wakefulness was identified by a low-amplitude and desynchronized EEG with sustained EMG activity. Slow wave sleep (SWS, includes Quiet sleep, deep sleep and Pre-REM) was clearly distinguished by high-voltage delta waves (2-4 Hz) and spindles associated with a […] EMG activity. Pre-REM sleep was characterized by a clear theta rhythm in the EEG, frequently alternating with short lasting, high voltage spindles. REM sleep was characterized by a low-amplitude EEG with a pronounced theta rhythm (5.5-8.5 Hz), a complete loss of muscle tone, and a low voltage EMG. […]

[7] = diazepam 2 mg/kg s.c., Mean ± SEM of 11 rats
[8] = diazepam 2 mg/kg s.c., Mean ± SEM of 11 rats, listed as diazepam
[9] = diazepam 2 mg/kg s.c., individual rats 1-11

T2 sequence (P48039 whole entry): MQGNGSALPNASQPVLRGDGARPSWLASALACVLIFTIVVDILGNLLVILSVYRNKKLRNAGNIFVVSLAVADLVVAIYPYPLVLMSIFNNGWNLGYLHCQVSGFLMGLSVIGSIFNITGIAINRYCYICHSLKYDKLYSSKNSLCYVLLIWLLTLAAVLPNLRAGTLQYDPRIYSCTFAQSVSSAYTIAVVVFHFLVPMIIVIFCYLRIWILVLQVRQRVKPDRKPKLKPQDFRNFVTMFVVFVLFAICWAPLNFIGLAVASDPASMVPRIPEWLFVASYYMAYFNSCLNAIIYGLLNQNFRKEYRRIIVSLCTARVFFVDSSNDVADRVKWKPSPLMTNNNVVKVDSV

SMILES: COc1cccc(N(C)CCNC(C)=O)c1 [5j, N-{2-[(3-Methoxyphenyl)-methylamino]ethyl}acetamide]
- MT2 pKi [1]: 9.19 ± 0.01
- MT2 IAr ± SEM (relative intrinsic activity) [2]: 1.06 ± 0.05
- MT1 IAr ± SEM (relative intrinsic activity) [3]: 0.95 ± 0.08
- MT1 pKi [4]: 9.09 ± 0.10
- melting point: 69 to 71 °C

SMILES: CCCC(=O)NCCN(c1ccccc1)c1cccc(OC)c1 [5n, N-{2-[(3-Methoxyphenyl)-phenylamino]ethyl}butanamide]
- MT2 pKi [1]: 9.98 ± 0.26
- MT2 IAr ± SEM (relative intrinsic activity) [2]: 0.73 ± 0.02
- MT1 IAr ± SEM (relative intrinsic activity) [3]: 1.01 ± 0.04
- MT1 pKi [4]: 8.38 ± 0.01
- melting point: 50 to 52 °C

SMILES: CN1C(=O)CN=C(c2ccccc2)c2cc(Cl)ccc21 [Diazepam]
- Head Dips [5]: 11.37 ± 2.12 (P = 0.01)
- Percentage of time in Closed Arms [5]: 67.75 ± 5.87 (P = 0.007) %
- Percentage of time in Open Arms [5]: 32.25 ± 5.9 (P = 0.006) %
- Total time duration in the Closed Arms [5]: 178.71 ± 18.16 (P = 0.006) sec/closed arm
- Total time duration in the Open Arms [5]: 122.0 ± 18.0 (P = 0.008) sec/open arm
- Head Dips ([5]; listed as diazepam): increase in the number of head dips
- Latency (sec) to feed (Sprague Dawley rats): 36.10 ± 15.32 (P ≦ 0.001)* sec
- Latency (sec) to feed (Sprague Dawley rats; listed as diazepam): decreased latency to feed
- Slow Wave Sleep Duration [6]: 58.45 min and 89.15 min and 84 min and 105.18 min and 99.03 min and 103.14 min and 92.36 min and 114.55 min and 94.85 min and 88.22 min and 83.9 min
- Slow Wave Sleep Latency [6]: 18.02 min and 3.98 min and 8.25 min and 2.86 min and 6.93 min and 3.06 min and 18.42 min and 13.59 min and 22.5 min and 6.51 min and 26.36 min
- Wakefulness Duration [6]: 69.58 min and 73.27 min and 68.04 min and 83.4 min and 62.00 min and 82.58 min and 85.76 min and 66.32 min and 115.52 min and 71.04 min and 80.79 min
- REM Sleep Duration [6, 7]: 6.5 ± 0.7 min
- REM Sleep Latency [6, 7]: 74.5 ± 5.2 min
- REM Sleep Mean of a Single Episode [6, 7]: 1.43 ± 0.11 min
- REM Sleep Number (episodes) [6, 7]: 4.6 ± 0.5 episodes
- Slow Wave Sleep Duration [6, 7]: 92.0 ± 4.4 min
- Slow Wave Sleep Mean of a Single Episode [6, 7]: 5.4 ± 0.38 min
- Slow Wave Sleep Number (episodes) [6, 7]: 18.0 ± 1.6 episodes
- Wakefulness Duration [6, 7]: 78.2 ± 4.43 min
- Wakefulness Mean of a Single Episode [6, 7]: 2.7 ± 0.84 min
- Wakefulness Number (episodes) [6, 7]: 17.0 ± 1.52 episodes
- REM Sleep Duration (min) [6, 8]: significantly decreases
- REM Sleep Latency (min) [6, 8]: significantly increases
- REM Sleep Number (episodes) [6, 8]: significantly decreases
- Slow Wave Sleep Duration (min) [6, 8]: increase the duration of the SWS; also recorded: significantly increases
- Slow Wave Sleep Latency (min) [6, 8]: significantly decreases
- Slow Wave Sleep Mean of a Single Episode (min) [6, 8]: significantly increase
- Slow Wave Sleep Number (episodes) [6, 8]: no influence
- Wakefulness Duration (min) [6, 8]: significantly decreases
- Wakefulness Number (episodes) [6, 8]: no influence
- REM Sleep Duration [6, 9]: 6.04 min and 5.45 min and 12.03 min and 5.18 min and 7.71 min and 8.81 min and 4.23 min and 5.86 min and 2.55 min and 8.52 min and 5.62 min
- REM Sleep Latency [6, 9]: 102.43 min and 56.83 min and 56.59 min and 96.4 min and 61.69 min and 93.4 min and 72.26 min and 86.41 min and 58.92 min and 73.3 min and 61.33 min
- REM Sleep Mean of a Single Episode [6, 9]: 1.51 min and 1.816 min and 1.718 min and 1.295 min and 1.542 min and 0.978 min and 1.05 min and 1.465 min and 0.85 min and 2.13 min and 1.405 min
- REM Sleep Number (episodes) [6, 9]: 4 episodes (6×) and 3 episodes (2×) and 7 episodes and 5 episodes and 9 episodes
- Slow Wave Sleep Mean of a Single Episode [6, 9]: 6.49 min and 7.42 min and 3.11 min and 5.53 min and 4.3 min and 5.15 min and 4.39 min and 4.98 min and 6.77 min and 5.18 min and 6.45 min
- Slow Wave Sleep Number (episodes) [6, 9]: 9 episodes and 12 episodes and 27 episodes and 19 episodes and 23 episodes (2×) and 20 episodes and 21 episodes and 14 episodes and 17 episodes and 13 episodes
- Wakefulness Mean of a Single Episode [6, 9]: 12.83 min and 5.92 min and 4.03 min and 3.66 min and 3.05 min and 4.00 min and 3.79 min and 2.69 min and 5.5 min and 5.71 min and 6.02 min
- Wakefulness Number (episodes) [6, 9]: 9 episodes and 12 episodes and 20 episodes and 19 episodes and 24 episodes and 17 episodes and 22 episodes and 23 episodes and 15 episodes (2×) and 11 episodes

SMILES: CC(=O)NCCN(c1ccccc1)c1ccccc1 [5a, N-[2-(diphenylamino)ethyl]acetamide]
- MT2 pKi [1]: 8.41 ± 0.13
- MT2 IAr ± SEM (relative intrinsic activity) [2]: 0.57 ± 0.04
- MT1 Activity [3]: ANT
- MT1 IAr ± SEM (relative intrinsic activity) [3]: 0.10 ± 0.03
- MT1 pKi [4]: 6.90 ± 0.04
- melting point: 44 to 45 °C
